Measurements reported in patent US11071835B2, “Inhalable medicaments” (PHARMACHEMIE B.V., priority 2013, dated 2021).
Structures can show the parent of a compound that is named as a salt.

Settings: batch B (formoterol 7544MO) versus batch A (formoterol 7544MA); 160/4.5 μg product; same inhaler, budesonide and lactose
Method: A pharmacokinetic (PK) clinical study was conducted. The PK study assessed a number of key formulation parameters, metered dose (device dose cup volume), formulation blend strength, drug substance particle size and lactose particle size, using a stepwise approach. The PK study was carried out on the middle strength product (160/4.5 μg). […] For both batch A and batch B, the inhaler, the budesonide and the lactose were the same.

**Q.** With `COc1ccc(CC(C)NCC(O)c2ccc(O)c(NC=O)c2)cc1` (stereo not shown) [7544MO, formoterol fumarate dihydrate] as the molecule, how does the “lowering of formoterol Cmax” value read?
**A.** more than 20%
